Reference: US6972319B1, “Pituitary adenylate cyclase activating peptide (PACAP)receptor 3 (R3) agonists and their pharmacological methods of use” (priority 1999, dated 2005)
No end group written: not given here.

Columns and labels:
PACAP-R2 = target: T1, PACAP-R2 (Homo sapiens, UniProt P32241); test: Cyclic AMP SPA on CHO cells transfected with PACAP-R2; format: cell-based; conditions: cAMP SPA, concentration at which 50% of maximum PACAP27 activity is achieved, NA = no detectable activities, read-out: R2 EC50
T1 construct: expressed in transfected cells; host or cells: CHO cells
T1 sequence (P32241 31-457): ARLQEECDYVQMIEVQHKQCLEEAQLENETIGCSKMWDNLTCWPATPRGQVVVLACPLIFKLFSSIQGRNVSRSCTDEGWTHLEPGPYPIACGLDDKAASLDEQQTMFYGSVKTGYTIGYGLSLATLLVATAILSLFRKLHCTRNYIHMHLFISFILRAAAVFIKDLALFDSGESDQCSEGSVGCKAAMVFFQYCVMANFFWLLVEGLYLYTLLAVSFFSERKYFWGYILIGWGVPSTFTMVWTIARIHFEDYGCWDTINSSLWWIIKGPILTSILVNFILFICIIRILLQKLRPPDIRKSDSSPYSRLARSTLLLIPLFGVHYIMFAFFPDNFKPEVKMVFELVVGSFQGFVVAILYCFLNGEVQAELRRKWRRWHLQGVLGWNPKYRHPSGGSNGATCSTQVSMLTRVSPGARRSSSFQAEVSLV
Description: CHO cells expressing the PACAP R3 were plated in 96-well plates (Costar) at 8×10^4 cell/well and grown at 37 C. for 24 hours in α MEM+nucleosides+glutamine (Giobco BRL), 10% FBS, 100 μg/ml Pen/Strep, 0.3 mg/ml glutamine, 1 mM HEPES, 0.5 mg/ml Geneticin (Gibco BRL). The media was removed and the plates were washed with PBS. The cells were incubated with a peptide, in Hepes-PBS-BSA with 0.4 mg/mlSoybean Trypsin Inhibitor, 0.5 mg/ml Bacitracin, 100 uM IBMX, for 15 min at 37 C. Cyclic AMP in the cell extracts was quantitated using the cAMP SPA direct screening assay system (Amersham Pharmacia Biotech Inc, Piscataway, N.J.,). The peptides shown in Table 3 were assayed for cAMP activity.
EC50 is defined as the concentration of the polypeptide at which 50% of maximum PACAP27 activity is achieved. “NA” denotes no detectable activities. “R3 Selectivity” is derived from the ratio of EC50 at R2 versus EC50 at R3.

PACAP-R3 = target: T2, PACAP-R3 (Homo sapiens, UniProt P41587); test: Cyclic AMP SPA on CHO cells expressing PACAP R3; format: cell-based; set-up: expressed in transfected cells; host or cells: CHO cells (Geneticin selection); conditions: for EC50: cAMP SPA, CHO cells transfected with PACAP-R3, concentration at which 50% of maximum PACAP27 activity is achieved, NA = no detectable activities, read-out: R3 EC50; for R3 Selectivity: ratio of EC50 at R2 versus EC50 at R3
T2 sequence (P41587 24-438): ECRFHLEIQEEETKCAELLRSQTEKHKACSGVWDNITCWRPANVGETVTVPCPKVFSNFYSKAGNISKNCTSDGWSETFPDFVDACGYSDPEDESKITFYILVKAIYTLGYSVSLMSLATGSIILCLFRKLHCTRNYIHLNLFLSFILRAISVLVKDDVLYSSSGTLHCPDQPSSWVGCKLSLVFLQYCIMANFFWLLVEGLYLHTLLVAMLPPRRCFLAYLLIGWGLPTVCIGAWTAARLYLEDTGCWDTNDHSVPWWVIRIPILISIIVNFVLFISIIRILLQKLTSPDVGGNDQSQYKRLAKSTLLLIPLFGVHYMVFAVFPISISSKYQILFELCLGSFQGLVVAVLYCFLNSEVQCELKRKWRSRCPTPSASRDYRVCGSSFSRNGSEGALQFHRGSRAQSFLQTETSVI
How it was run: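 Potency reflects cyclic AMP accumulation, determined by SPA, after a 15 min, 37 C peptide exposure of CHO cells carrying the human receptor. Values are expressed relative to the maximal PACAP27 effect, with EC50 taken at its 50% level.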

Row | Substance | EC50 (PACAP-R2) | EC50 (PACAP-R3) | R3 Selectivity (PACAP-R3)
1 | Ac-HSDAVFTENYTKLRKQLAAKKYLNDLKKGGT-NH2 [Peptide R3P1] | > 100 nM | 2 nM | >50
2 | ESDGIFTDSYSRYRKQMAVKKYLAAVL-NH2 [PAC1] | 970 nM | 10 nM | 97
3 | H-HSDAVFTDNYTRLRKQLAAKKYLNDIKKNQ [Peptide R3P35] | > 100 nM | 2.6 nM | >40
4 | H-HSDAVFTDNYTRLRKQMAAKHYLNSIKNKRY [Peptide R3P74] | 90 nM | 0.6 nM | 150
5 | H-HSDAVFTDNYTRLRKQMAAKKYLNDIKKGGT [Peptide R3P20] | 330 nM | 1.4 nM | 230
6 | H-HSDAVFTDNYTRLRKQMAAKKYLNSIDNKR [Peptide R3P118] | 15 nM | 0.5 nM | 30
7 | H-HSDAVFTDNYTRLRKQMAAKKYLNSIKNKD [Peptide R3P155] | 40 nM | 0.4 nM | 100
8 | H-HSDAVFTDNYTRLRKQMAAKKYLNSIKNKH [Peptide R3P159] | 200 nM | 0.5 nM | 400
9 | H-HSDAVFTDNYTRLRKQMAAKKYLNSIQNKR [Peptide R3P127] | 300 nM | 0.5 nM | 600
10 | H-HSDAVFTDNYTRLRKQMAAKKYLNSISNKR [Peptide R3P129] | 50 nM | 1 nM | 50
11 | H-HSDAVFTDNYTRLRKQMAGKKYLNSIRNRI [rR3P190] | 220 nM | 2.2 nM | 100
12 | H-HSDAVFTDNYTRLRKQMAKKKYLNSIKNKR [Peptide R3P104] | 100 nM | 0.2 nM | 500
13 | H-HSDAVFTDNYTRLRKQMAVKKYLNSIKN [Peptide R3P42] | 0.3 nM | 0.03 nM | 10
14 | H-HSDGIFTDSYSEYRKQMAVKKYLAAVL-NH2 [PAC12] | 150 nM | 3 nM | 50
15 | H-HSDGIFTDSYSRYRKQLAAKKYLADVKKGGT [Peptide R3P37] | 71 nM | 4 nM | 18
16 | H-HSDGIFTDSYSRYRKQMAKKKYLAAVL-NH2 [PAC19] | 8 nM | 0.4 nM | 20
17 | H-HSDGIFTDSYSRYRKQMAVKKYKAAVL-NH2 [PAC23] | 170 nM | 13 nM | 13
18 | H-HSDGIFTDSYSRYRKQMAVKKYLAAVKQGGT-NH2 [Peptide R3P16] | 14 nM | 10 nM | 1.4
19 | H-HSDGIFTESYSRYRKQMAVKKYLAALKKKRYKQRVKNK [Peptide R3P6] | 220 nM | 80 nM | 3
20 | HSDAVFTDNYTKLRKQLAAKKYLNDILNGGT [Peptide R3P11] | 10 nM | 3 nM | 3
21 | HSDAVFTDNYTRLRKQIAAKKYLQTIKK [Peptide R3P61] | 110 nM | 0.8 nM | 140
22 | HSDAVFTDNYTRLRKQLAAKKYLNDIKK [Peptide R3P33] | > 100 nM | 0.5 nM | >200
23 | HSDAVFTDNYTRLRKQLAAKKYLNDIKKGG [Peptide R3P31] | > 100 nM | 0.3 nM | >300
24 | HSDAVFTDNYTRLRKQLAAKKYLNDIKKQ [Peptide R3P34] | > 100 nM | 1.4 nM | >70
25 | HSDAVFTDNYTRLRKQLAAKKYLNDILKGGT [Peptide R3P23] | 10 nM | 0.43 nM | 23

Row | Substance | EC50 (PACAP-R2) | EC50 (PACAP-R3) | R3 Selectivity (PACAP-R3)
26 | HSDAVFTDNYTRLRKQLAAKKYLNDILNGGT [Peptide R3P27] | 6.4 nM | 0.8 nM | 8
27 | HSDAVFTDNYTRLRKQLAAKKYLNSIKKGGT [Peptide R3P22] | 38 nM | 1.6 nM | 24
28 | HSDAVFTDNYTRLRKQLAAKKYLNSIKNGGT [Peptide R3P30] | 20 nM | 0.4 nM | 50
29 | HSDAVFTDNYTRLRKQLAVKKYLNDIKNGGT [Peptide R3P29] | > 100 nM | 0.5 nM | >200
30 | HSDAVFTDNYTRLRKQLAVKKYLNSIKKGGT [Peptide R3P25] | 15 nM | 0.7 nM | 20
31 | HSDAVFTDNYTRLRKQLAVKKYLNSILN [Peptide R3P46] | 0.4 nM | 0.06 nM | 7
32 | HSDAVFTDNYTRLRKQMAAHKYLNSIKNKRY [Peptide R3P73] | 50 nM | 0.3 nM | 170
33 | HSDAVFTDNYTRLRKQMAAKKYLNSIANKR [Peptide R3P116] | 20 nM | 1 nM | 20
34 | HSDAVFTDNYTRLRKQMAAKKYLNSIENKR [Peptide R3P119] | 15 nM | 0.5 nM | 30
35 | HSDAVFTDNYTRLRKQMAAKKYLNSIFNKR [Peptide R3P120] | 10 nM | 0.2 nM | 50
36 | HSDAVFTDNYTRLRKQMAAKKYLNSIHNKR [Peptide R3P122] | 10 nM | 0.2 nM | 50
37 | HSDAVFTDNYTRLRKQMAAKKYLNSIKKGGT [Peptide R3P26] | > 100 nM | 0.55 nM | >180
38 | HSDAVFTDNYTRLRKQMAAKKYLNSIKKK [Peptide R3P54] | > 100 nM | 0.5 nM | >200
39 | HSDAVFTDNYTRLRKQMAAKKYLNSIKKKR [Peptide R3P53] | 500 nM | 0.2 nM | 2500
40 | HSDAVFTDNYTRLRKQMAAKKYLNSIKKKRY [Peptide R3P52] | > 100 nM | 0.4 nM | >250
41 | HSDAVFTDNYTRLRKQMAAKKYLNSIKN [Peptide R3P49] | 8 nM | 0.27 nM | 30
42 | HSDAVFTDNYTRLRKQMAAKKYLNSIKNDR [Peptide R3P136] | 20 nM | 0.3 nM | 70
43 | HSDAVFTDNYTRLRKQMAAKKYLNSIKNER [Peptide R3P137] | 30 nM | 0.3 nM | 100
44 | HSDAVFTDNYTRLRKQMAAKKYLNSIKNGR [Peptide R3P139] | 20 nM | 0.4 nM | 50
45 | HSDAVFTDNYTRLRKQMAAKKYLNSIKNHR [Peptide R3P140] | 15 nM | 0.3 nM | 50
46 | HSDAVFTDNYTRLRKQMAAKKYLNSIKNIR [Peptide R3P141] | 20 nM | 0.2 nM | 100
47 | HSDAVFTDNYTRLRKQMAAKKYLNSIKNKA [Peptide R3P153] | 40 nM | 0.2 nM | 200
48 | HSDAVFTDNYTRLRKQMAAKKYLNSIKNKE [Peptide R3P156] | 100 nM | 1 nM | 100
49 | HSDAVFTDNYTRLRKQMAAKKYLNSIKNKF [Peptide R3P157] | 50 nM | 0.3 nM | 170
50 | HSDAVFTDNYTRLRKQMAAKKYLNSIKNKG [Peptide R3P158] | 6 nM | 0.07 nM | 90
